Results reported in article PMC7156612, “Olinciguat, an Oral sGC Stimulator, Exhibits Diverse Pharmacology Across Preclinical Models of Cardiovascular, Metabolic, Renal, and Inflammatory Disease” (Frontiers in Pharmacology, 2020).
“Also recorded” adds a separate entry of the source. Marks after values point to notes of the source that are not given here.

Columns and labels:
[1] = ZSF1 rat model of metabolic syndrome and diabetic nephropathy; assay type: in vivo; conditions: male, rat, plasma, oral; obese ZSF1, enalapril + olinciguat 30 mg/kg/day in chow; read-out: average total plasma concentration of olinciguat at Week 10
Description: (§1) Lean (n=8, 370–420 g, 15 weeks) and obese (n=32, 500–630 g, 15 weeks) male ZSF1 rats were studied. Rats were treated with enalapril to reflect standard of care drug treatment for patients with diabetic kidney disease. Dose modeling based on allometric scaling relationships estimated that a 10 mg/day enalapril dose in humans (within usual dose range of 10–40 mg based on prescribing information) corresponds to 1 mg/kg/day in rats ([Nair and Jacob, 2016]). To measure hemodynamics in freely moving animals, ZSF1 obese rats were implanted with telemetry transmitters (HD-S10, Data Sciences International) at 9–10 weeks of age, as described above.
(§2) The study included a 10-day pretreatment period and a 10-week treatment period. There were five groups of rats in the study. The lean ZSF1 control group (lean control, n=8) and one obese group (obese control, n=8) were fed normal chow and drinking water throughout the 10-day pretreatment period and the 10-week treatment period. Three groups of obese rats were treated with enalapril in drinking water (equivalent to 3 mg/kg/day) throughout the 10-day pretreatment period and the 10-week treatment period. During the treatment period, these enalapril-treated obese rats were administered normal chow (ENP, n=8) or chow containing olinciguat targeting the dose of 10 mg/kg/day (ENP+OLI10, n=8) or 30 mg/kg/day (ENP+OLI30, n=8). Blood and 24-h urine samples were obtained from all animals at baseline (immediately prior to initiation of enalapril treatment), the end of the 10-day pretreatment period (Day 10) and at week 5 and week 10 of the treatment period. Plasma samples were obtained from all olinciguat-treated animals for measurement of olinciguat exposure at week 10. During week 9 of treatment, rats were fasted for 16 h overnight prior to determination of fasting blood glucose using the AlphaTRAK (Abbott) glucose monitoring system. Body weight was measured once every other week. At the end of the study, rats were anesthetized and perfused via the left ventricle with heparinized PBS (1 U/ml heparin) containing IBMX (1 mM). Organs were collected and weighed, and plasma was collected in EDTA tubes. For serum, blood was collected in serum separator tubes, maintained at room temperature for at least 30 min and centrifuged at 6,000 rpm for 10 min, and then stored at −80°C until analysis. Urine and serum samples were analyzed using the Randox Daytona Clinical Chemistry Analyzer (Randox, Kearneysville, WV) for urine protein, serum cholesterol and serum triglycerides. All measurements were performed in accordance with manufacturer's instructions.
(§3) For histology, one kidney from each rat was fixed in 10% formalin, then embedded in paraffin. Slides were prepared and stained with hematoxylin and eosin (H&E) and periodic-acid Schiff (PAS) for light microscopic analysis. Kidney sections were evaluated for the presence of glomerular pathology, tubular damage, interstitial inflammation, interstitial fibrosis, and vascular alterations. Severity-based scoring based on these evaluations was performed by a trained pathologist.
(§4) For the ZSF1 experiment, data are expressed as mean ± standard error of the mean (SEM).
(§5) In the ZSF1 study, change from baseline NT-proBNP, week 10 heart, kidney, and liver weight, urine volume, cholesterol, triglycerides, glucose, and renal histopathology sum score were analyzed by one-way ANOVA corrected for multiple comparisons using Tukey's method. Statistically significant differences vs the obese control and vs the ENP group are indicated in the results. MAP and UPE were analyzed by an ordinary two-way ANOVA with timepoint and treatment group as independent variables, followed by a Tukey's multiple comparisons test. Within each treatment group, significant differences vs baseline are indicated in the results. At week 10, statistically significant differences vs the obese control and vs the ENP control are also indicated in the results.

obese ZSF1 rats = assay: as above; assay type: in vivo
Description: as §1, §2, §3, §4, §5

[2] = obese ZSF1, enalapril 3 mg/kg/day + olinciguat 30 mg/kg/day

NC(=O)[C@](O)(CNc1nc(-c2cc(-c3ccon3)n(Cc3ccccc3F)n2)ncc1F)C(F)(F)F [olinciguat, (R)-3,3,3-trifluoro-2-(((5-fluoro-2-(1-(2-fluorobenzyl)-5-(isoxazol-3-yl)-1H-pyrazol-3-yl)pyrimidin-4-yl)amino)methyl)-2-hydroxypropanamide]
concentration at 10 weeks [1]: 510 to 610 nM
cholesterol, percent lower than obese control (obese ZSF1 rats; [2]): 41%
increase of proteinuria over 10 weeks (obese ZSF1 rats; [2]): 56%
liver weight (obese ZSF1 rats; [2]): ↓ liver weight
serum cholesterol at week 10 (obese ZSF1 rats; [2]): ↓ cholesterol
serum triglycerides at week 10 (obese ZSF1 rats; [2]): ↓ triglycerides
total kidney weight (obese ZSF1 rats; [2]): did not develop renal hypertrophy; also recorded: ↓ kidney weight
triglycerides, percent lower than obese control (obese ZSF1 rats; [2]): 52%
fasting blood glucose (obese ZSF1 rats; obese ZSF1, enalapril 3 mg/kg/day + olinciguat 30 mg/kg/day, week 9): ↓glucose
UPE at week 10 (obese ZSF1 rats; obese ZSF1, enalapril 3 mg/kg/day + olinciguat 30 mg/kg/day, obese control 1.42 ± 0.12): ↓ proteinuria
renal pathology sum score (obese ZSF1 rats; obese ZSF1, enalapril 3 mg/kg/day + olinciguat 30 mg/kg/day, p < 0.0001 vs obese control): significantly improved the composite renal histopathological score; also recorded: ↓ renal histopath
Olinciguat concentration (free) (obese ZSF1 rats; obese ZSF1, olinciguat 30 mg/kg/day, total plasma concentration x 1.0% free): 5.1–6.1 nM^e
glucose, percent lower (obese ZSF1 rats; obese ZSF1, treatment with olinciguat (discussion)): 43%
difference in MAP at end of treatment between enalapril+olinciguat 30 mg/kg and enalapril monotherapy groups (obese ZSF1 rats; obese ZSF1, week 10): −8^d mmHg
